Results: US20070258921A1, “PROCESS FOR DEPIGMENTING THE SKIN” (L'OREAL, priority 2006, published 2007)
pIC50: −log10 of the molar value.

Key:
[1] = system: cocultures of keratinocytes and of melanocytes; experiment: Inhibition of melanin synthesis (ratio of thiouracil to leucine incorporation) in keratinocyte/melanocyte cocultures; format: cell-based
Procedure: (§1) The modulating effect with regard to melanogenesis of the compounds tested was measured according to the method described in Patent FR-A-2 734 825 and in the paper by R. Schmidt, P. Krien and M. Régnier, Anal. Biochem., 235(2), 113-18, 1996. This test is carried out on cocultures of keratinocytes and of melanocytes.
(§2) For the compound tested, the following were determined:
the inhibitory activity with regard to the synthesis of melanin, by estimating the ratio of the incorporation of thiouracil to the incorporation of leucine, with respect to 100% of the control (the control corresponds to the test carried out without compound to be tested). The IC50 (concentration at which the synthesis of melanin is inhibited by 50%) values were determined.

[2] = system: cocultures of keratinocytes and of melanocytes; experiment: Cytotoxicity by estimating the incorporation of leucine in keratinocyte/melanocyte cocultures; format: cell-based
Procedure: as §1, §2
the cytotoxicity, by estimating the incorporation of leucine, […]

Row | pIC50 ([1]; ratio of thiouracil to leucine incorporation, with respect to 100% of the control, read-out: IC50 (concentration at which the synthesis of melanin is inhibited by 50%)) | SMILES | inhibition at 100 µM ([1]; at the concentration of 100 μM, read-out: melanin synthesis inhibited) [%] | Cytotoxicity [2]
1 | – | Nc1ncnc2c1ncn2[C@@H]1O[C@H](CO)[C@@H](O)[C@H]1O [adenosine, reference compound] | 20 | –
2 | 4.46 | CC(=O)OC[C@H]1O[C@@H](n2cnc3c(N)ncnc32)[C@@H]2OC(C)(C)O[C@@H]21 [Compound H, 2′,3′-isopropylidene-5′-acetyladenosine] | – | No
